Laboratory results: patent US20070281992A1, “COMBINATION OF GYRASE B INHIBITORS AND PROTEIN SYNTHESIS INHIBITORS AND USES THEREOF” (priority 2006, published 2007)
Read-outs that look alike come from different tables or passages of the source.

Columns and labels:
Format in all cases: cell-based
[1] = system: Methicillin-Resistant Staphylococcus aureus Isolates; assay: MIC assay (NCCLS broth dilution), MRSA clinical isolates; details: for MIC: read-out: Minimal Inhibitory Concentration
Experimental: (§1) Antibiotics: novobiocin, tetracycline, minocycline, oxacillin, and vancomycin were all purchased from Sigma-Aldrich. Linezolid was obtained from Pfizer, Inc. Novobiocin/tetracycline and novobiocin/minocycline were tested in a 2.5:1 ratio to mimic the serum levels. (Vavra, J. J., 1967, Development of resistance to novobiocin, tetracycline, and novobiocin-tetracycline combinations in Staphylococcus aureus populations, J. Bacteriol 93(3):801). Compounds were tested across a concentration range consisting of 11 two-fold serial dilutions of test agent.
(§2) Stock solutions were prepared in sterile deionized water; novobiocin stock concentration was 1600 μg/mL and all other drugs stock solutions were prepared at 640 μg/mL. The stock solutions were allowed to sit at room temperature for one hour to auto-sterilize prior to use in the test. All compounds were in solution in water. The control agent was vancomycin hydrochloride, Sigma Chemical Lot # 015K0825.
(§3) The test organisms for the assay were 52 MSSA, 52 MRSA, 8 VISA, 7 VISE, and 3 LRSA isolates. Quality control strains included Staphylococcus aureus 0100 (ATCC 29213) and Enterococcus faecalis (ATCC 29212).
(§4) The MIC assay was performed according to published NCCLS guidelines. (National Committee for Clinical Laboratory Standards, Methods for Dilution Antimicrobial Susceptibility Tests for Bacteria that Grow Aerobically; Approved Standard-Sixth Edition, NCCLS Document M7-A6 [ISBN 1-56238-486-4], NCCLS, 940 West Valley Road, Suite 1400, Wayne, Pa. 19087-1898 USA, 2003). The test medium was Mueller Hinton II Broth for all organisms.

[2] = system: Unconfirmed Vancomycin-intermediate Staphylococcus aureus Isolates; assay: MIC assay (NCCLS broth dilution), unconfirmed VISA isolates; details: for MIC: read-out: Minimal Inhibitory Concentration
Experimental: as §1, §2, §3, §4

[3] = system: Vancomycin-intermediate Staphylococcus aureus Isolates; assay: MIC assay (NCCLS broth dilution), VISA isolates; details: for MIC: read-out: Minimal Inhibitory Concentration
Experimental: as §1, §2, §3, §4

[4] = system: Vancomycin-intermediate Staphylococcus epidermidis Isolates; assay: MIC assay (NCCLS broth dilution), VISE isolates; details: for MIC: read-out: Minimal Inhibitory Concentration
Experimental: as §1, §2, §3, §4

[5] = system: Linezolid-Resistant Staphylococcus aureus Isolates; assay: MIC assay (NCCLS broth dilution), LRSA isolates; details: for MIC: read-out: Minimal Inhibitory Concentration
Experimental: as §1, §2, §3, §4

[6] = system: Unconfirmed Vancomycin-intermediate Staphylococcus epidermidis Isolates; assay: MIC assay (NCCLS broth dilution), unconfirmed VISE isolates; details: for MIC: read-out: Minimal Inhibitory Concentration
Experimental: as §1, §2, §3, §4

[7] = system: Enterococcus faecalis (ATCC 29212); assay: MIC assay, quality control strain E. faecalis ATCC 29212; details: ATCC29212, E. faecalis ATCC 29212, repeat runs 22FEB06-09MAR06, combinations at 2.5:1, read-out: Minimal Inhibitory Concentration, quality control
Experimental: as §1, §2, §3, §4

[8] = Staphylococcus aureus, 52 MRSA isolates, combinations at 2.5:1, given as NB/partner

CO[C@@H]1[C@@H](OC(N)=O)[C@@H](O)[C@H](Oc2ccc3c(O)c(NC(=O)c4ccc(O)c(CC=C(C)C)c4)c(=O)oc3c2C)OC1(C)C [NB, novobiocin]
≦.04-.62 μg/ml: MIC Range ([1]; 52 MRSA isolates, combinations at 2.5:1, given as NB/partner)
0.15 µg/mL: MIC ([1]; Staphylococcus aureus, MRSA isolate 758, 24FEB06) | MIC ([1]; Staphylococcus aureus, MRSA isolate 760, 24FEB06) | MIC ([1]; Staphylococcus aureus, MRSA isolate 765, 22FEB06) | MIC ([1]; Staphylococcus aureus, MRSA isolate 767, 22FEB06) | MIC ([1]; Staphylococcus aureus, MRSA isolate 768, 22FEB06) | MIC ([1]; Staphylococcus aureus, MRSA isolate 769, 22FEB06) | MIC ([1]; Staphylococcus aureus, MRSA isolate 772, 22FEB06) | MIC ([1]; Staphylococcus aureus, MRSA isolate 775, 24FEB06) | MIC ([1]; Staphylococcus aureus, MRSA isolate 776, 24FEB06) | MIC ([1]; Staphylococcus aureus, MRSA isolate 886, 24FEB06) | MIC ([1]; Staphylococcus aureus, MRSA isolate 888, 24FEB06) | MIC ([1]; Staphylococcus aureus, MRSA isolate 889, 24FEB06) | MIC ([1]; Staphylococcus aureus, MRSA isolate 1014, 22FEB06) | MIC ([1]; Staphylococcus aureus, MRSA isolate 1021, 22FEB06) | MIC ([1]; Staphylococcus aureus, MRSA isolate 1023, 22FEB06) | MIC ([1]; Staphylococcus aureus, MRSA isolate 1024, 22FEB06) | MIC ([1]; Staphylococcus aureus, MRSA isolate 1025, 22FEB06) | MIC ([1]; Staphylococcus aureus, MRSA isolate 1138, 22FEB06) | MIC ([1]; Staphylococcus aureus, MRSA isolate 1730, 24FEB06) | MIC ([1]; Staphylococcus aureus, MRSA isolate 2010, 24FEB06) | MIC ([1]; Staphylococcus aureus, MRSA isolate 2011, 24FEB06) | MIC50 [1, 8] | MIC ([2]; Staphylococcus aureus, Unconfirmed VISA isolate 2014, 03MAR06) | MIC ([2]; Staphylococcus aureus, Unconfirmed VISA isolate 2017, 03MAR06) | MIC Range ([5]; 3 LRSA isolates, combinations at 2.5:1) | MIC ([5]; Staphylococcus aureus, LRSA isolate 1651, 24FEB06) | MIC ([5]; Staphylococcus aureus, LRSA isolate 1652, 24FEB06) | MIC ([5]; Staphylococcus aureus, LRSA isolate 1725, 24FEB06) | MIC50 ([5]; Staphylococcus aureus, 3 LRSA isolates, combinations at 2.5:1)
5 µg/mL: MIC ([6]; Staphylococcus epidermidis, Unconfirmed VISE isolate 2024, 09MAR06) | MIC [7]
≦.04-.08 μg/ml: MIC Range ([3]; 2 VISA isolates, combinations at 2.5:1, given as NB/partner) | MIC Range ([4]; 4 VISE isolates, combinations at 2.5:1)
0.08 µg/mL: MIC ([1]; Staphylococcus aureus, MRSA isolate 758, 03MAR06) | MIC ([1]; Staphylococcus aureus, MRSA isolate 760, 03MAR06) | MIC ([1]; Staphylococcus aureus, MRSA isolate 763, 22FEB06) | MIC ([1]; Staphylococcus aureus, MRSA isolate 766, 22FEB06) | MIC ([1]; Staphylococcus aureus, MRSA isolate 771, 22FEB06) | MIC ([1]; Staphylococcus aureus, MRSA isolate 887, 24FEB06) | MIC ([1]; Staphylococcus aureus, MRSA isolate 1015, 22FEB06) | MIC ([1]; Staphylococcus aureus, MRSA isolate 1017, 22FEB06) | MIC ([1]; Staphylococcus aureus, MRSA isolate 1222, 03MAR06) | MIC ([1]; Staphylococcus aureus, MRSA isolate 1222, 24FEB06) | MIC ([1]; Staphylococcus aureus, MRSA isolate 1658, 03MAR06) | MIC ([1]; Staphylococcus aureus, MRSA isolate 1659, 03MAR06) | MIC ([1]; Staphylococcus aureus, MRSA isolate 1729, 03MAR06) | MIC ([2]; Staphylococcus aureus, Unconfirmed VISA isolate 2013, 03MAR06) | MIC ([3]; Staphylococcus aureus, VISA isolate 2012, 03MAR06) | MIC ([4]; Staphylococcus epidermidis, VISE isolate 2020, 09MAR06)
≦.04-5 μg/ml: MIC Range ([6]; 3 unconfirmed VISE isolates, combinations at 2.5:1)
< 0.04 µg/mL: MIC ([4]; Staphylococcus epidermidis, VISE isolate 2023, 03MAR06)
0.312 µg/mL: MIC90 [1, 8] | MIC ([6]; Staphylococcus epidermidis, Unconfirmed VISE isolate 2025, 09MAR06) | MIC50 ([6]; Staphylococcus epidermidis, 3 unconfirmed VISE isolates, combinations at 2.5:1)
≤ 0.04 µg/mL: MIC ([1]; Staphylococcus aureus, MRSA isolate 770, 22FEB06) | MIC ([1]; Staphylococcus aureus, MRSA isolate 777, 24FEB06) | MIC ([1]; Staphylococcus aureus, MRSA isolate 778, 24FEB06) | MIC ([1]; Staphylococcus aureus, MRSA isolate 1653, 03MAR06) | MIC ([1]; Staphylococcus aureus, MRSA isolate 1661, 03MAR06) | MIC ([1]; Staphylococcus aureus, MRSA isolate 2009, 24FEB06) | MIC ([2]; Staphylococcus aureus, Unconfirmed VISA isolate 2015, 03MAR06) | MIC ([2]; Staphylococcus aureus, Unconfirmed VISA isolate 2016, 03MAR06) | MIC ([2]; Staphylococcus aureus, Unconfirmed VISA isolate 2019, 03MAR06) | MIC50 ([2]; Staphylococcus aureus, 6 unconfirmed VISA isolates (vancomycin MIC 4 ug/ml), combinations at 2.5:1) | MIC ([3]; Staphylococcus aureus, VISA isolate 2018, 03MAR06) | MIC50 ([3]; Staphylococcus aureus, 2 VISA isolates, combinations at 2.5:1, given as NB/partner) | MIC ([4]; Staphylococcus epidermidis, VISE isolate 2021, 09MAR06) | MIC ([4]; Staphylococcus epidermidis, VISE isolate 2022, 03MAR06) | MIC50 ([4]; Staphylococcus epidermidis, 4 VISE isolates, combinations at 2.5:1) | MIC ([6]; Staphylococcus epidermidis, Unconfirmed VISE isolate 2026, 03MAR06)
≦.04-.15 μg/ml: MIC Range ([2]; 6 unconfirmed VISA isolates (vancomycin MIC 4 ug/ml), combinations at 2.5:1)
0.31 µg/mL: MIC ([1]; Staphylococcus aureus, MRSA isolate 757, 24FEB06) | MIC ([1]; Staphylococcus aureus, MRSA isolate 773, 24FEB06) | MIC ([1]; Staphylococcus aureus, MRSA isolate 774, 24FEB06) | MIC ([1]; Staphylococcus aureus, MRSA isolate 1004, 24FEB06) | MIC ([1]; Staphylococcus aureus, MRSA isolate 1010, 22FEB06) | MIC ([1]; Staphylococcus aureus, MRSA isolate 1012, 22FEB06) | MIC ([1]; Staphylococcus aureus, MRSA isolate 1013, 22FEB06) | MIC ([1]; Staphylococcus aureus, MRSA isolate 1016, 22FEB06) | MIC ([1]; Staphylococcus aureus, MRSA isolate 1022, 22FEB06) | MIC ([1]; Staphylococcus aureus, MRSA isolate 1135, 22FEB06) | MIC ([1]; Staphylococcus aureus, MRSA isolate 1136, 22FEB06)
0.62 µg/mL: MIC ([1]; Staphylococcus aureus, MRSA isolate 1137, 22FEB06)
